Source: publication PMC3254644, “DNA Display Selection of Peptide Ligands for a Full-Length Human G Protein-Coupled Receptor on CHO-K1 Cells” (PLoS ONE, 2012)
pIC50, pKd: −log10 of the molar value. Residues, ends and D or L forms follow the SMILES beside them.

Legend:
[1] = target: T1, human angiotensin II type 1 receptor (hAT1R) (Homo sapiens, UniProt P30556); test: Competitive binding assay at various concentrations of synthetic peptides (IC50); settings: streptavidin-fused Ang II on hAT1R/CHO-K1 cells competed by 0–200 nM synthetic peptide; 10 min room temperature; quantitative Western blot (Fig. S1)
T1 construct: we applied the DNA display system to in vitro selection of peptide ligands for a full-length GPCR expressed on whole cells; polyhistidine (C); expressed in transfected cells
T1 sequence (P30556 1-359): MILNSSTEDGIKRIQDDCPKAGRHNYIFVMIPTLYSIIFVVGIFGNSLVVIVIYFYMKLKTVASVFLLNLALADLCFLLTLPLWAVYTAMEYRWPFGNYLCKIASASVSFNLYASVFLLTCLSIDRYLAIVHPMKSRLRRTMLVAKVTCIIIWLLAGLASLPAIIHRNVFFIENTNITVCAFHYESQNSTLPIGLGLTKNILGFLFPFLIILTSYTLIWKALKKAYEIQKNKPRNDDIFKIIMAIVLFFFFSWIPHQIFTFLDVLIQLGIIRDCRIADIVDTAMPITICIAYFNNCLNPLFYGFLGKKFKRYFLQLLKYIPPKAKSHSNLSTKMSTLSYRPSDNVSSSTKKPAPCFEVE
Description: Streptavidin-fused peptides for selected clones were prepared separately by using the PURE system classic II kit with 20 nM DNA for 1 h at 37°C. The streptavidin-fused peptides were incubated with the hAT1R-expressing cells for 10 min at room temperature in the presence 0–200 nM synthetic peptides (see next section) as competitors, and washed as described in the previous section. Then the binding proteins were recovered using 0.5 ml of lysis buffer (1% protease inhibitor cocktail and 4 M urea) on ice for 30 min. The cell lysates were analyzed by 15% SDS-PAGE and Western blot analysis using anti-T7·tag antibody (Novagen) followed by HRP-conjugated secondary antibody (Chemicon). The streptavidin-fused peptides with T7·tag were quantitatively detected by an ECL chemiluminescence kit and Hyperfilm ECL (GE Healthcare).
Supplementary file pone.0030084.s001.pdf: Figure S1 Competition curves for selected peptides. […] For details, see MATERIALS AND METHODS. (PDF) Click here for additional data file.

[2] = target: human angiotensin II (Ang II) type-1 receptor (hAT1R) with C-terminal c-myc tag, on CHO-K1 cells (human) (UniProt P30556); test: radioligand binding; [125I]Sar1,Ile8-Ang II, 0.05 nM to 20 nM, on hAT1R/CHO-K1 cells in 48-well plates; Ham's F12 with 1% BSA; 30 min at room temperature; Scatchard analysis; data not shown
rat AT1R = tested on: rat AT1R; set-up: method as in PMID 12969745; settings: cited from earlier work

| Compound | pIC50 [1] | further results |
| --- | --- | --- |
| CC[C@H](C)[C@H](NC(=O)[C@H](CCCNC(=N)N)NC(=O)[C@@H](N)CC(N)=O)C(=O)N[C@@H](Cc1ccc(O)cc1)C(=O)N[C@H](C(=O)N[C@@H](Cc1c[nH]cn1)C(=O)N1CCC[C@H]1C(=O)N[C@@H](Cc1ccccc1)C(=O)O)[C@@H](C)CC [LI5-1] (H-NRIYIHPF-OH) | 7.80 |  |
| CC(C)C[C@H](NC(=O)[C@H](CCCNC(=N)N)NC(=O)[C@@H](N)Cc1c[nH]c2ccccc12)C(=O)N[C@@H](Cc1ccc(O)cc1)C(=O)N[C@@H](CC(C)C)C(=O)N[C@@H](Cc1c[nH]cn1)C(=O)N1CCC[C@H]1C(=O)N[C@@H](Cc1ccccc1)C(=O)O [LI5-2] (H-WRLYLHPF-OH) | 7.12 |  |
| CC[C@H](C)[C@H](NC(=O)[C@@H]1CCCN1C(=O)[C@H](Cc1c[nH]cn1)NC(=O)[C@@H](NC(=O)[C@H](Cc1ccc(O)cc1)NC(=O)[C@H](CC(C)C)NC(=O)[C@H](CCCNC(=N)N)NC(=O)CN)[C@@H](C)CC)C(=O)O [LII3-2] (H-GRLYIHPI-OH) | 8.07 |  |
| CC[C@H](C)[C@H](NC(=O)[C@H](Cc1ccc(O)cc1)NC(=O)[C@H](Cc1ccccc1)NC(=O)[C@H](CCCNC(=N)N)NC(=O)[C@@H](N)CCC(N)=O)C(=O)N[C@@H](Cc1c[nH]cn1)C(=O)N1CCC[C@H]1C(=O)N[C@@H](CC(C)C)C(=O)O [LII3-4] (H-QRFYIHPL-OH) | 7.32 |  |
| CC[C@H](C)[C@H](NC(=O)[C@@H]1CCCN1C(=O)[C@H](Cc1c[nH]cn1)NC(=O)[C@@H](NC(=O)[C@H](Cc1ccc(O)cc1)NC(=O)[C@H](CC(C)C)NC(=O)[C@H](CCCCN)NC(=O)[C@@H](N)CCCNC(=N)N)[C@@H](C)CC)C(=O)O [LII3-5] (H-RKLYIHPI-OH) | 8.12 |  |
| [125I]Sar1,Ile8-Ang II (peptide) |  | pKd [2]: 8.09 |
| [Lys^2]Ang II (DKVYIHPF; Angiotensin-2; UniProt P01019 25-32, looked up, variant R2K) [Ang II analogue with Lys at position 2, from the literature] |  | affinity for rat AT1R relative to wild-type Ang II (rat AT1R): lower than that of wild-type Ang II |
